Structures can show the parent of a compound that is named as a salt.
target: T1, H3 histaminergic receptors (Rattus norvegicus, UniProt Q9QYN8); assay: Reversal by H3 antagonists of exogenous histamine-induced inhibition of histamine release in sections of rat cerebral cortex (Arrang et al.); type: biochemical; settings: not given
Source text: This method employs sections of rat cerebral cortex, and made possible the pharmacological characterisation of the H3 receptors (Nature, 1987, 327; 117-123).
This effect is progressively reversed in the presence of H3 antagonists such as the compounds of the invention, added at increasing concentrations. […]

T1 sequence (Q9QYN8 whole entry): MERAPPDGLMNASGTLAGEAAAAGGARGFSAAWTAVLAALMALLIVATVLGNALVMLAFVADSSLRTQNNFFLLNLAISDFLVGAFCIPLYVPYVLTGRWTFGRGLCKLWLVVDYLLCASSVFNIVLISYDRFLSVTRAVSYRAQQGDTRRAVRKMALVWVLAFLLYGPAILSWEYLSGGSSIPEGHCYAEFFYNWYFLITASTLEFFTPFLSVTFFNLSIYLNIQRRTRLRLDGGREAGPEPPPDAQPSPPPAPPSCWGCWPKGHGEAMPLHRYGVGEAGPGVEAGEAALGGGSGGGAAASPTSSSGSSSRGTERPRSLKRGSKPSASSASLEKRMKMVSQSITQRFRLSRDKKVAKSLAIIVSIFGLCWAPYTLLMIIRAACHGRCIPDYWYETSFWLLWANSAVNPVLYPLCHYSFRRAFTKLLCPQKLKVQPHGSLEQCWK

Ki	SMILES
20 nM	O=C(C1CC1c1ccccc1)N1CCC(c2c[nH]cn2)CC1 (centres unmarked) [Compound 13]
23 nM	O=C(CC1CC2CCC1C2)N1CCC(c2c[nH]cn2)CC1 (centres unmarked) [Compound 23, 1-(Norbornylmethylcarbonyl)-4-(1H-imidazol-4-yl)piperidine]
84 nM	O=C(CCc1ccccc1)N1CCC(c2c[nH]cn2)CC1 [Compound 38, 1-(3-Phenylpropionyl)-4-(1H-imidazol-4-yl)piperidine (Oxalate)]
35 nM	O=C(CCCc1cccs1)N1CCC(c2c[nH]cn2)CC1 [Compound 43]
65 nM	O=C(CCCCCCc1ccccc1)N1CCC(c2c[nH]cn2)CC1 [Compound 48]
47 nM	OC(=CCCc1ccccc1)N1CCC(c2c[nH]cn2)CC1 [Compound 59, 1-(1-Hydroxy-4-phenyl-1-buten-1-yl)-4-(4-imidazolyl)piperidine (Dihydrochloride)]
120 nM	OC(=CCCCCCCCCCOc1ccccc1)N1CCC(c2c[nH]cn2)CC1 [Compound 60, 1-(1-Hydroxy-11-phenoxy-1-undecen-1-yl)-4-(4-imidazolyl)piperidine (dihydrochloride)]
68 nM	O=C(NCCC1CCCCC1)N1CCC(c2c[nH]cn2)CC1 [Compound 77]
77 nM	O=C(NCCCc1ccccc1)N1CCC(c2c[nH]cn2)CC1 [Compound 83]

SMILES	Ki
CCCCCCC(=O)N1CCC(c2cnc[nH]2)CC1 [Compound 1]	48 nM
O=C(CC1CCC1)N1CCC(c2c[nH]cn2)CC1 [Compound 20]	59 nM

same assay, conditions: read-out: Apparent dissociation constant (Ki) as histamine antagonists at receptors of rat brain; sections of rat cerebral cortex; exogenous histamine 1 μM; apparent Ki calculated from IC50 according to Cheng and Prusoff with histamine EC=0.1 μM

Ki	SMILES
63 nM	O=C(N1CCC(c2c[nH]cn2)CC1)C12CC3CC(CC(C3)C1)C2 [Compound 8]
34 nM	O=C(CCCOc1ccccc1)N1CCC(c2cn(C(=O)Nc3ccc(Cl)cc3Cl)cn2)CC1 [Compound 92, 1-(4-Phenoxybutylryl)-4-[1-(2,4-Dichlorophenylaminocarbonyl)-4-imidazolyl]piperidine]

target: T1, H3 histaminergic receptors; assay: not given; settings: histamine at a concentration of 1 μM; cited from earlier work

SMILES	Inhibition of release by exogenous histamine
NCCc1c[nH]cn1 [histamine]	approximately 50%
